The species entered for assay [1] is Homo sapiens. The experiment in a line: In vitro inhibition of human platelet aggregation induced by collagen (at a concentration of 3 ug/mL); IA means Inactive at 50 uM. It is filed as functional.
For assay [2], the species on record is Homo sapiens. The experiment in a line: In vitro inhibition of human platelet aggregation induced by thromboxane mimetic U-46,619 at 0.3 uM. It is filed as functional, organism-based.
Assay [3] deals with T1, Proteinase-activated receptor 1 (Homo sapiens, UniProt P25116).
T1 sequence (P25116 whole entry): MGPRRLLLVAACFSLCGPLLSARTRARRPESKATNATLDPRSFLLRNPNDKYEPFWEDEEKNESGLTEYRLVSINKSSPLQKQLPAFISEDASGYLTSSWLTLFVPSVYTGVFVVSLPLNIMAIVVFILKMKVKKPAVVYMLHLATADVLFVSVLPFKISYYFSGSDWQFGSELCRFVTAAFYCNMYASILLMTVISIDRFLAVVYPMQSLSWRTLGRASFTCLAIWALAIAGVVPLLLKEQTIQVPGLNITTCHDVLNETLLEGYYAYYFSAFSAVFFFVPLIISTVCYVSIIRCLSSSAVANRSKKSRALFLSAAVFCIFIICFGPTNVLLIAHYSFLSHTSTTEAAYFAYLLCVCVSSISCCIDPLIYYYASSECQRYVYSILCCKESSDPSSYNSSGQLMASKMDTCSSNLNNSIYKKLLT
In words: In vitro displacement of [3H]S-(p-F-Phe)-homoarginine-K Y-NH2 (at a concentration of 10 nM) from thrombin receptor (PAR-1) on the membranes of CHRF-288-11 cells.

The species named for assay [4] is Homo sapiens. The experiment in a line: In vitro inhibition of human platelet aggregation induced by thromboxane mimetic U-46,619 (at a concentration of 0.3 uM). It is filed as functional.
For assay [5], the species on record is Homo sapiens. In words: In vitro inhibition of human platelet aggregation induced by 3 ug/ml collagen. It is filed as functional.
Assay [6] is filed under the species Homo sapiens. In words: In vitro inhibition of human platelet aggregation induced by SFLLRN-NH2 (at a concentration of 2 uM); IA means Inactive at 50 uM. It is filed as functional.
The species named for assay [7] is Homo sapiens. The experiment in a line: In vitro inhibition of human platelet aggregation induced by thromboxane mimetic U-46,619 (at a concentration of 0.3 uM concentration. It is filed as functional.
Assay [8] is filed under the species Homo sapiens. In words: In vitro inhibition of human platelet aggregation induced by collagen (at a concentration of 3 ug/mL); In active at 50 uM concentration. It is filed as functional.

For `COc1ccc(C[C@H](NC(=O)Nc2ccc3c(CN4CCCC4)cn(Cc4ccc(F)cc4)c3c2)C(=O)N[C@@H](CCCN=C(N)N)C(=O)NCc2ccccc2)cc1`, the IC50 (as a rule, the concentration at which inhibition is half-maximal) is “Not Active” in the assay listed under Homo sapiens [1], “Not Active” in the assay filed under Homo sapiens [2] and 2.2 µM in assay [3].
As for `COc1ccc(C[C@H](NC(=O)Nc2ccc3c(CN4CCCCC4)cn(Cc4cccc(C)c4)c3c2)C(=O)N[C@@H](CCCNC(=N)N)C(=O)NCC2CCCCC2)cc1`, the IC50 in the assay filed under Homo sapiens [4] was 36.3 µM; in assay [3], 3.2 µM; in the assay listed under Homo sapiens [5], 27.5 µM.
With `N#Cc1ccc(C[C@H](NC(=O)Nc2ccc3c(CN4CCCC4)cn(Cc4c(Cl)cccc4Cl)c3c2)C(=O)N[C@@H](CCCNC(=N)N)C(=O)NCc2ccccc2)cc1`, the IC50 result in the assay filed under Homo sapiens [1] and in the assay filed under Homo sapiens [2] was “Not Active” in each case.
With `CCN(CC)Cc1cn(Cc2ccccc2C)c2cc(NC(=O)N[C@@H](Cc3ccc(OC)cc3)C(=O)N[C@@H](CCCN=C(N)N)C(=O)NCCCc3ccccc3)ccc12`, the 50% inhibitory concentration (IC50) entry in the assay listed under Homo sapiens [2] was “Not Active”; in assay [3], 2.5 µM; in the assay filed under Homo sapiens [5] it was 17 µM.
Take `NCCCC[C@H](NC(=O)[C@H](Cc1ccc(F)c(F)c1)NC(=O)Nc1ccc2c(CN3CCCC3)cn(Cc3c(Cl)cccc3Cl)c2c1)C(=O)NCc1ccccc1`: the IC50 in the assay filed under Homo sapiens [4] amounted to 41.9 µM; in assay [3], 0.3 µM; in the assay filed under Homo sapiens [5], 21.3 µM.
Consider `NCCC[C@H](NC(=O)[C@H](Cc1ccc(F)c(F)c1)NC(=O)Nc1ccc2c(CN3CCCC3)cn(Cc3c(Cl)cccc3Cl)c2c1)C(=O)NCc1ccccc1`, for which the IC50 entry is “Not Active” in the assay filed under Homo sapiens [2], 0.5 µM in assay [3] and 15.7 µM in the assay filed under Homo sapiens [5].
`COc1ccc(C[C@H](NC(=O)Nc2ccc3c(CN4CCCCC4)cn(Cc4ccc(OC(F)(F)F)cc4)c3c2)C(=O)N[C@@H](CCCNC(=N)N)C(=O)NCC2CCCCC2)cc1`: the values for the IC50 (in the assay filed under Homo sapiens [4]; in assay [3]; in the assay filed under Homo sapiens [5]) were 43.5 µM, 5.6 µM and 33.1 µM, respectively.
For the molecule `COc1ccc(C[C@H](NC(=O)Nc2ccc3c(CN4CCCCC4)cn(Cc4ccccc4C)c3c2)C(=O)N[C@@H](CCCN=C(N)N)C(=O)NCCCc2ccccc2)cc1`, the IC50 result was “Not Active” in the assay filed under Homo sapiens [2], 0.73 µM in assay [3] and 13 µM in the assay listed under Homo sapiens [5].
With `COc1ccc(C[C@H](NC(=O)Nc2ccc3c(CN4CCCC4)cn(Cc4ccccc4C)c3c2)C(=O)N[C@@H](CCCN=C(N)N)C(=O)NCCCc2ccccc2)cc1`, the half-inhibitory concentration (IC50) in the assay filed under Homo sapiens [4] amounted to 44.2 µM; in assay [3], 1 µM; in the assay filed under Homo sapiens [5], 11.9 µM.
On to `COc1ccc(C[C@H](NC(=O)Nc2ccc3c(CN4CCC4)cn(Cc4ccc(F)cc4)c3c2)C(=O)N[C@@H](CCCN=C(N)N)C(=O)NCc2ccccc2)cc1`, for which the half-maximal inhibitory concentration (IC50) entry in the assay listed under Homo sapiens [1] and in the assay listed under Homo sapiens [2] was “Not Active” each time.
As for `COC(=O)c1ccc(Cn2cc(CN3CCCC3)c3ccc(NC(=O)N[C@@H](Cc4ccc(OC)cc4)C(=O)N[C@@H](CCCN=C(N)N)C(=O)NCC4CCCCC4)cc32)cc1`, the IC50 entry is “Not Active” in the assay filed under Homo sapiens [1], “Not Active” in the assay listed under Homo sapiens [2], 3.5 µM in assay [3] and “Not Active” in the assay filed under Homo sapiens [6].
As to `NC(=O)NCCCC(NC(=O)[C@H](Cc1ccc(F)c(F)c1)NC(=O)Nc1ccc2c(CN3CCCC3)cn(Cc3c(Cl)cccc3Cl)c2c1)C(=O)NCc1ccccc1` (some centres undefined), the results for the IC50 result (in the assay filed under Homo sapiens [1]; in the assay listed under Homo sapiens [2]; in assay [3]) were “Not Active”, “Not Active” and 0.24 µM, respectively.
With `NC(=O)CCC(NC(=O)[C@H](Cc1ccc(F)c(F)c1)NC(=O)Nc1ccc2c(CN3CCCC3)cn(Cc3c(Cl)cccc3Cl)c2c1)C(=O)NCc1ccccc1` (some centres undefined), the IC50 result in the assay filed under Homo sapiens [1] was “Not Active”; in the assay filed under Homo sapiens [2], “Not Active”; in assay [3], 1.8 µM.
Take `CSCCC(NC(=O)[C@H](Cc1ccc(F)c(F)c1)NC(=O)Nc1ccc2c(CN3CCCC3)cn(Cc3c(Cl)cccc3Cl)c2c1)C(=O)NCc1ccccc1` (some centres undefined): the IC50 entry in the assay filed under Homo sapiens [1] is “Not Active”; in the assay filed under Homo sapiens [2], “Not Active”; in assay [3], 11.2 µM.
On to `COc1ccc(C[C@H](NC(=O)Nc2ccc3c(CN4CCCCC4)cn(Cc4ccc(F)cc4)c3c2)C(=O)N[C@@H](CCCN=C(N)N)C(=O)NCC2CCCCC2)cc1`, for which the IC50 in the assay filed under Homo sapiens [4] worked out at 26.2 µM; in the assay filed under Homo sapiens [5], 26.1 µM.
Turning to `COc1ccc(C[C@H](NC(=O)Nc2ccc3c(CN4CCCC4)cn(Cc4c(Cl)cccc4Cl)c3c2)C(=O)N[C@@H](CCCNC(=N)N)C(=O)NCc2ccccc2)cc1` [RWJ-54003], the half-inhibitory concentration (IC50) entry in the assay filed under Homo sapiens [2] is “Not Active”; in assay [3], 1.3 µM; in the assay listed under Homo sapiens [5], 46.3 µM.
On to `COc1ccc(C[C@H](NC(=O)Nc2ccc3c(CN4CCCC4)cn(Cc4ccccc4Cl)c3c2)C(=O)N[C@@H](CCCN=C(N)N)C(=O)NCCCc2ccccc2)cc1`, for which the IC50 in the assay listed under Homo sapiens [4] was determined as 44.4 µM; in assay [3], 0.38 µM; in the assay filed under Homo sapiens [5], 12 µM.
Take `COc1ccc(C[C@H](NC(=O)Nc2ccc3c(CN4CCCC4)cn(Cc4ccc(F)cc4)c3c2)C(=O)N[C@@H](CCCN=C(N)N)C(=O)NCC2CCCCC2)cc1`: the IC50 was found to be 12.5 µM in the assay filed under Homo sapiens [4], 2.6 µM in assay [3] and 37.6 µM in the assay filed under Homo sapiens [5].
In the case of `COc1ccc(C[C@H](NC(=O)Nc2ccc3c(CN4CCCC4)cn(Cc4ccc(OC(F)(F)F)cc4)c3c2)C(=O)N[C@@H](CCCNC(=N)N)C(=O)NCC2CCCCC2)cc1`, the figures for the IC50 (in the assay listed under Homo sapiens [4]; in assay [3]; in the assay listed under Homo sapiens [5]) were 33 µM, 2.5 µM and 40.4 µM, respectively.
On to `CCN(CC)Cc1cn(Cc2cccc(C)c2)c2cc(NC(=O)N[C@@H](Cc3ccc(OC)cc3)C(=O)N[C@@H](CCCN=C(N)N)C(=O)NCCCc3ccccc3)ccc12`, for which the IC50 entry in the assay listed under Homo sapiens [2] was “Not Active”; in assay [3], 2.6 µM; in the assay listed under Homo sapiens [5] it was 10.2 µM.
Taken in the same sequence, the figures for `NCC(NC(=O)[C@H](Cc1ccc(F)c(F)c1)NC(=O)Nc1ccc2c(CN3CCCC3)cn(Cc3c(Cl)cccc3Cl)c2c1)C(=O)NCc1ccccc1` (some centres undefined) were “Not Active”, 0.92 µM and 36.9 µM.
`COc1ccc(C[C@H](NC(=O)Nc2ccc3c(CN4CCCC4)cn(Cc4ccc(F)cc4)c3c2)C(=O)N[C@@H](CCCN=C(N)N)C(=O)NCCCc2ccccc2)cc1`: the IC50 in the assay filed under Homo sapiens [4] was determined as 21.4 µM; in the assay listed under Homo sapiens [5] it was 16.1 µM.
On to `N=C(N)NCCC[C@H](NC(=O)[C@H](Cc1ccc([N+](=O)[O-])cc1)NC(=O)Nc1ccc2c(CN3CCCC3)cn(Cc3ccc(F)cc3)c2c1)C(=O)NCc1ccccc1`, for which the results for the IC50 result (in the assay filed under Homo sapiens [2]; in assay [3]; in the assay listed under Homo sapiens [5]) were “Not Active”, 1.1 µM and 16.5 µM, respectively.
With `N=C(N)NCCC[C@H](NC(=O)[C@H](Cc1ccc(F)c(F)c1)NC(=O)Nc1ccc2c(CN3CCCC3)cn(Cc3c(Cl)cccc3Cl)c2c1)C(=O)NCc1ccccc1`, the IC50 result in the assay listed under Homo sapiens [1] is “Not Active”; in the assay listed under Homo sapiens [2], “Not Active”; in assay [3], 0.82 µM.
As for `Cc1ccccc1Cn1cc(CN2CCCC2)c2ccc(NC(=O)N[C@@H](Cc3ccc([N+](=O)[O-])cc3)C(=O)N[C@@H](CCCN=C(N)N)C(=O)NCc3ccccc3)cc21`, the IC50 result in the assay filed under Homo sapiens [2] is “Not Active”; in assay [3], 0.8 µM; in the assay listed under Homo sapiens [5] it was 20.6 µM.
With `Cc1ccccc1Cn1cc(CN2CCCC2)c2ccc(NC(=O)N[C@@H](Cc3ccc(C#N)cc3)C(=O)N[C@@H](CCCN=C(N)N)C(=O)NCc3ccccc3)cc21`, the 50% inhibitory concentration (IC50) entry in the assay listed under Homo sapiens [2] is “Not Active”; in assay [3] it was 6.4 µM; in the assay filed under Homo sapiens [5] it was 25.9 µM.
As to `NCCC(NC(=O)[C@H](Cc1ccc(F)c(F)c1)NC(=O)Nc1ccc2c(CN3CCCC3)cn(Cc3c(Cl)cccc3Cl)c2c1)C(=O)NCc1ccccc1` (some centres undefined), the IC50 entry in the assay listed under Homo sapiens [7] was “Not Active”; in assay [3], 0.44 µM; in the assay listed under Homo sapiens [8], “Not Active”.
On to `CCN(CC)Cc1cn(Cc2ccc(F)cc2)c2cc(NC(=O)N[C@@H](Cc3ccc(OC)cc3)C(=O)N[C@@H](CCCN=C(N)N)C(=O)NCC3CCCCC3)ccc12`, for which the half-inhibitory concentration (IC50) stood at 39.5 µM in the assay filed under Homo sapiens [4], 3.1 µM in assay [3] and 25.8 µM in the assay filed under Homo sapiens [5].
Turning to `O=C(Nc1ccc2c(CN3CCCC3)cn(Cc3c(Cl)cccc3Cl)c2c1)N[C@@H](Cc1ccc(F)c(F)c1)C(=O)NC(Cc1c[nH]cn1)C(=O)NCc1ccccc1` (some centres undefined), the figures for the IC50 entry (in the assay listed under Homo sapiens [2]; in assay [3]; in the assay listed under Homo sapiens [5]) were “Not Active”, 1.3 µM and 34 µM, respectively.

The values are drawn from ChEMBL document CHEMBL1133903, “Thrombin receptor (PAR-1) antagonists. Solid-phase synthesis of indole-based peptide mimetics by anchoring to a secondary amide” (Bioorg Med Chem Lett, 2001).
